Measurements: ChEMBL document CHEMBL1201862, “PubChem BioAssay data set” (2004)
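Following 48 hours of exposure in 96-well plates, responses at five concentrations were used to interpolate endpoints linearly. Here, GI50 denotes the concentration required for 50% inhibition of growth.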 Calls of active or inactive are those of the source. No stated cut-off is given here; in the data, active = GI50 up to about 1.1 µM and inactive = higher.

Tests used:
Assay in all cases: NCI tumour cell line growth inhibition, 48 h
A549 = system: A549
HCC 2998 = system: HCC 2998
HCT-116 = system: HCT-116
HL-60 = system: HL-60
HT-29 = system: HT-29
Hs-578T = system: Hs-578T
IGROV-1 = system: IGROV-1
KM12 = system: KM12
MOLT-4 = system: MOLT-4
Malme-3M = system: Malme-3M
NCI-H460 = system: NCI-H460
NCI/ADR-RES = system: NCI/ADR-RES
OVCAR-3 = system: OVCAR-3
SK-MEL-28 = system: SK-MEL-28
SK-MEL-2 = system: SK-MEL-2
UACC-257 = system: UACC-257
UACC-62 = system: UACC-62
CAKI-1 = system: CAKI-1

Measured: GI50

Cc1cnc2sn(-c3ccc(Oc4ccccc4)cc3)c(=O)c2c1
inactive: A549 16.8 µM | HCC 2998 6.47 µM | HCT-116 14 µM | HL-60 4.36 µM | HT-29 18.2 µM | Hs-578T 21.1 µM | IGROV-1 14.7 µM | KM12 13.4 µM | MOLT-4 8.67 µM | Malme-3M 1.7 µM | NCI-H460 7.41 µM | NCI/ADR-RES 21.7 µM | OVCAR-3 6.11 µM | SK-MEL-28 10.3 µM | SK-MEL-2 28.3 µM | UACC-257 11.9 µM | UACC-62 10.3 µM

O=C(NCCCCN(CCCNC(=O)C(F)(F)F)Cc1ccccc1)C(F)(F)F
inactive: A549 > 100 µM | HCC 2998 > 100 µM | HCT-116 > 100 µM | HL-60 > 100 µM | HT-29 > 100 µM | Hs-578T > 100 µM | IGROV-1 25.2 µM | KM12 > 100 µM | MOLT-4 > 100 µM | NCI-H460 > 100 µM | NCI/ADR-RES > 100 µM | OVCAR-3 > 100 µM | SK-MEL-28 > 100 µM | SK-MEL-2 > 100 µM | UACC-257 > 100 µM | UACC-62 > 100 µM

N#Cc1ccc(/N=N/N2CCCC2)cc1
inactive: CAKI-1 > 100 µM | HCC 2998 > 100 µM | HCT-116 > 100 µM | HL-60 91.2 µM | Hs-578T > 100 µM | IGROV-1 > 100 µM | KM12 > 100 µM | MOLT-4 61.2 µM | NCI-H460 > 100 µM | NCI/ADR-RES > 100 µM | OVCAR-3 > 100 µM | SK-MEL-2 > 100 µM | UACC-257 > 100 µM | UACC-62 > 100 µM

O=C(COc1ccc(OCC(=O)N2C(=O)CC/C2=N\c2ccc(Cl)cc2)cc1)N1C(=O)CS/C1=N\c1ccc(Cl)cc1
inactive: A549 26.4 µM | CAKI-1 > 100 µM | HCC 2998 > 100 µM | HCT-116 93.8 µM | HL-60 37.2 µM | HT-29 48.4 µM | Hs-578T > 100 µM | IGROV-1 47.6 µM | KM12 75.2 µM | Malme-3M 77.3 µM | NCI-H460 72.6 µM | NCI/ADR-RES > 100 µM | OVCAR-3 61.2 µM | SK-MEL-28 > 100 µM | SK-MEL-2 > 100 µM | UACC-257 56 µM | UACC-62 > 100 µM

C=CCN1C[C@H](C)N([C@@H](c2ccc(C(=O)N3CCCCC3)cc2)c2cccc(OC)c2)C[C@H]1C
inactive: A549 30.5 µM | CAKI-1 66.4 µM | HCC 2998 31.6 µM | HCT-116 28.6 µM | HL-60 1.35 µM | HT-29 24.7 µM | Hs-578T 86.7 µM | IGROV-1 63.2 µM | KM12 36.9 µM | MOLT-4 64.1 µM | Malme-3M 18.5 µM | NCI-H460 31 µM | NCI/ADR-RES 32.4 µM | OVCAR-3 49.2 µM | SK-MEL-2 22.2 µM | UACC-257 21.2 µM | UACC-62 21.5 µM

COC(=O)C1=C(C(=O)OC)c2cc(OC)ccc2C(C(=S)N(C)C)S1 (stereo not given)
inactive: A549 > 100 µM | CAKI-1 99.1 µM | HCC 2998 > 100 µM | HCT-116 > 100 µM | Hs-578T > 100 µM | IGROV-1 > 100 µM | KM12 > 100 µM | MOLT-4 > 100 µM | Malme-3M > 100 µM | NCI-H460 > 100 µM | NCI/ADR-RES > 100 µM | OVCAR-3 > 100 µM | SK-MEL-28 > 100 µM | SK-MEL-2 > 100 µM | UACC-257 > 100 µM | UACC-62 > 100 µM

OCC1OC(n2cnc3c(Cl)nc(Nc4ccc(Cl)c(Cl)c4)nc32)CC1O (stereo not given)
inactive: A549 14.2 µM | CAKI-1 16.3 µM | HCC 2998 7.8 µM | HCT-116 11 µM | HL-60 7.05 µM | HT-29 7.71 µM | Hs-578T 13.2 µM | IGROV-1 11.9 µM | KM12 8.83 µM | MOLT-4 5.02 µM | Malme-3M 12 µM | NCI-H460 7.91 µM | NCI/ADR-RES 10.4 µM | OVCAR-3 12.2 µM | SK-MEL-2 9.53 µM | UACC-257 9.48 µM | UACC-62 8.73 µM

CCOC(=O)c1cn2c(n1)sc1c(Cl)c(Cl)ccc12
inactive: A549 15.1 µM | CAKI-1 9.86 µM | HCC 2998 30.7 µM | HCT-116 5.69 µM | HT-29 12 µM | Hs-578T 5.33 µM | IGROV-1 13.8 µM | KM12 5.36 µM | MOLT-4 8.71 µM | Malme-3M 1.96 µM | NCI-H460 > 60.1 µM | NCI/ADR-RES 8.38 µM | OVCAR-3 11.1 µM | SK-MEL-28 20.8 µM | SK-MEL-2 27.4 µM | UACC-257 28.2 µM | UACC-62 20.2 µM

CC(C)(C)N1C=[N+](C(C)(C)C)CC1
inactive: A549 > 100 µM | CAKI-1 > 100 µM | HCC 2998 > 100 µM | HCT-116 > 100 µM | HL-60 > 100 µM | HT-29 > 100 µM | Hs-578T > 100 µM | IGROV-1 > 100 µM | KM12 > 100 µM | MOLT-4 > 100 µM | Malme-3M > 100 µM | NCI-H460 > 100 µM | NCI/ADR-RES > 100 µM | OVCAR-3 > 100 µM | SK-MEL-28 > 100 µM | SK-MEL-2 > 100 µM | UACC-257 > 100 µM

CC(CC=O)Nc1nn2c(=O)c3ccccc3nc2s1 (stereo not given)
inactive: A549 > 100 µM | CAKI-1 > 100 µM | HCC 2998 > 100 µM | HCT-116 > 100 µM | HT-29 > 100 µM | Hs-578T > 100 µM | IGROV-1 > 100 µM | KM12 > 100 µM | MOLT-4 > 100 µM | Malme-3M > 100 µM | NCI-H460 > 100 µM | NCI/ADR-RES > 100 µM | OVCAR-3 > 100 µM | SK-MEL-28 > 100 µM | SK-MEL-2 > 100 µM | UACC-257 > 100 µM | UACC-62 43.1 µM

COc1cc(-c2cc(=O)c3cc4c(cc3[nH]2)OCO4)cc(OC)c1O
inactive: A549 > 10 µM | CAKI-1 > 10 µM | HCC 2998 > 10 µM | HCT-116 > 10 µM | HL-60 > 10 µM | HT-29 > 10 µM | Hs-578T > 10 µM | IGROV-1 > 10 µM | KM12 > 10 µM | MOLT-4 > 10 µM | NCI-H460 > 10 µM | NCI/ADR-RES > 10 µM | OVCAR-3 > 10 µM | SK-MEL-28 > 10 µM | SK-MEL-2 > 10 µM | UACC-257 > 10 µM | UACC-62 > 10 µM

Nc1ccccc1N/C=C\C(=O)C(Cl)(Cl)Cl
inactive: A549 67.3 µM | CAKI-1 19.6 µM | HCC 2998 16.6 µM | HCT-116 16.2 µM | HL-60 22.3 µM | HT-29 18.9 µM | Hs-578T 48.8 µM | IGROV-1 16.4 µM | KM12 15.5 µM | MOLT-4 11 µM | Malme-3M 33.2 µM | NCI-H460 31.3 µM | NCI/ADR-RES 31 µM | SK-MEL-28 17.5 µM | SK-MEL-2 24.5 µM | UACC-257 21.9 µM | UACC-62 17.5 µM

C#CC(O)/C=C/C(O)CCCC(O)CC#CC(O)C#CCCCCC(O)/C=C/CCCC(O)/C=C/CCCCCCCCCCCCCC(O)C(O)C#CC(=O)O (stereo not given)
inactive: A549 > 25 µM | CAKI-1 > 25 µM | HCC 2998 > 25 µM | HCT-116 > 25 µM | HL-60 > 25 µM | HT-29 > 25 µM | Hs-578T > 25 µM | IGROV-1 > 25 µM | KM12 > 25 µM | MOLT-4 > 25 µM | Malme-3M 23.2 µM | NCI-H460 > 25 µM | NCI/ADR-RES > 25 µM | SK-MEL-28 > 25 µM | SK-MEL-2 > 25 µM | UACC-257 > 25 µM | UACC-62 > 25 µM

Nc1nc(Cl)nc2c1ncn2C1CCC(COP(=O)(O)OP(=O)(O)OP(=O)(O)O)O1 (stereo not given)
inactive: A549 32.7 µM | CAKI-1 6.89 µM | HCC 2998 28.1 µM | HCT-116 35.2 µM | HL-60 28.5 µM | HT-29 32 µM | Hs-578T 29.7 µM | IGROV-1 30.5 µM | KM12 32.4 µM | MOLT-4 65 µM | Malme-3M > 100 µM | NCI-H460 41.6 µM | NCI/ADR-RES 21.8 µM | OVCAR-3 50.2 µM | SK-MEL-28 20.4 µM | UACC-257 41.6 µM | UACC-62 18.1 µM

C[C@H]1O[C@@H](C(C)(C)C)OC(=O)[C@@H]1C(OC(=O)c1ccccc1)c1cccc2ccccc12 (stereo not given in full)
inactive: A549 > 100 µM | CAKI-1 > 100 µM | HCC 2998 > 100 µM | HCT-116 > 100 µM | HT-29 > 100 µM | Hs-578T 40.7 µM | IGROV-1 > 100 µM | KM12 > 100 µM | MOLT-4 > 100 µM | Malme-3M > 100 µM | NCI-H460 > 100 µM | NCI/ADR-RES 56.1 µM | OVCAR-3 > 100 µM | SK-MEL-28 > 100 µM | SK-MEL-2 > 100 µM | UACC-257 > 100 µM | UACC-62 > 100 µM

Cc1cc(C)cc(Nc2cc(O)nc(O)n2)c1
inactive: A549 > 100 µM | HCC 2998 > 100 µM | HCT-116 > 100 µM | HL-60 > 100 µM | HT-29 > 100 µM | Hs-578T > 100 µM | IGROV-1 > 100 µM | KM12 > 100 µM | MOLT-4 > 100 µM | Malme-3M > 100 µM | NCI-H460 > 100 µM | NCI/ADR-RES > 100 µM | OVCAR-3 > 100 µM | SK-MEL-28 > 100 µM | UACC-257 > 100 µM
